# “Also recorded” adds a separate entry of the source.
# Tests used:
# Phospholipase A2 (PLA2) = conditions: 30 min incubation, lavage fluid of rabbit 6015, increasing amounts of inhibitor
# Procedure: Terminal lavage fluid was collected from rabbits experiencing pulmonary injury initiated by the intratracheal administration of partially purified antibodies directed against BSA (anti-BSA antibodies). Palmitoyl, oleoyl phosphotidylglycerol (POPG, Avanti Polar Lipids) was added to the lavage fluid as a substrate for detecting PLA2 activity in the lavage fluid. Prior to addition of the POPG substrate, the mixture was adjusted to a final concentration of 10 mM CaCl2, 100 mM KCl and 25 mM Tris-Cl, pH 8.5. This mixture was incubated at 37° C. Aliquots were removed over time and the amount of oleic acid released from the POPG substrate was measured by high pressure liquid chromatography (HPLC). The amount of oleic acid released was quantified from the height of the peak at 4.59 min elution time from a C-18 HPLC column, as measured by the absorbance at 207 nm.
# BSA and anti-BSA antibodies were administered to rabbit 6015 and lavage fluids were obtained from rabbit 6015 as described in the previous Example. […] This mixture was incubated for 15 min. at 37° C. before addition of POPG substrate. PLA2 activity was measured using the height of the eluted oleic acid HPLC peak, as described in previous Examples.
# [1] = tested on: rabbits injured with LPS and PMA; assay: LPS/PMA-induced pulmonary injury in rabbits (ARDS Rabbit Model), terminal lavage analysis; format: in vivo
# Procedure: The effects of Model surfactant mixture, the serine elastase inhibitor, and the combination of the two on pulmonary inflammation were evaluated on an ARDS Rabbit Model. These experiments are described in details in Examples 8 to 12. Twenty (20) rabbits were divided into five groups for this study. Pulmonary inflammation was induced in Groups 1-4 rabbits from stimulation by lavaging with bacterial lipopolysaccharide (LPS) and, 3 hours later, with phorbol myristate acetate (PMA). Additionally, as treatment, Group 2 rabbits received Model surfactant mixture, Group 3 rabbits received the serine elastase inhibitor, and Group 4 animals received both Model surfactant mixture and the serine elastase inhibitor. Group 5 rabbits were normal rabbits and were used as control. The animals were sacrificed at six (6) hr., the right lower lobe was lavaged three times and the lavage fluids were pooled (terminal lavage) for each animal. The level of injury and the effect of the treatments were measured by the amount of basement membrane protein fragments and red blood cells found in terminal lavage fluids.
# LPS: Minn (List Biological). 5 mg vial. Animals were treated by quantitative lavage leaving 120 μg/kg in 8 ml/kg.
# PMA: (Sigma) diluted in saline or Model surfactant mixture to 5 μg/mL Used 20 ml/kg/rabbit for lavage, leaving 20% of the dosage in the animal.
# Model surfactant mixture: (Discovery Labs) 10 mg/ml. Use 20 ml/kg/rabbit for lavage, leaving 20% of the dosage in the animal.
# Serine Elastase Inhibitor. Elafin (Astra-Zeneca) 3 mg/ml stock, dialyzed against saline to remove azide: 1.3 ml/kg Elafin was administered intravenously at 1.5 hr., 0.33 ml/kg was administered intratracheally (×2 sides) at 3 hr., and 0.66 ml/kg was administered intravenously at 4.5 hr.
# Twenty NZW rabbits are divided into five (5) treatment groups with four (4) animals each. Lung injury is induced by two lavages with LPS in saline and one PMA treatment administered by lavage at 3 hr. Serine elastase inhibitor and Model surfactant mixture were separately and jointly tested to ascertain the degree to which these factors could reduce symptoms of inflammation. Treatments received by the different groups are as follows:
# Group 1: The animals received two lavages with LPS in saline and one PMA treatment administered by lavage at 3 hr. A dosage of ^125I-BSA was given to the animals intravenously at 5.5 hr. and the animals were sacrificed at 6 hr.
# Group 2: The animals received two lavages with LPS in saline, one PMA and Model surfactant mixture treatment administered by lavage at 3 hr. A dosage of ^125I-BSA was given to the animals intravenously at 5.5 hr. and the animals were sacrificed at 6 hr.
# Group 3: The animals received two lavages with LPS in saline and one PMA treatment administered by lavage at 3 hr. […]
# [2] = tested on: elastase activity in rabbit BAL fluids; assay: Elastase activity in rabbit BAL fluids after addition of serine elastase inhibitor; format: biochemical; conditions: 100 μg/ml inhibitor added to BAL fluids of six anti-BSA/BSA treated rabbits
# Procedure: Six rabbits were treated with 3 mg anti-BSA/kg (rabbits 6098 and 6099) or 5 mg anti-BSA/kg (rabbits 6100-6103) was instilled intratracheally and 10 mg of BSA was given intravenously (6098-6101) to induce respiratory distress. Bronchoalveolar lavage (BAL) fluids were taken from the lungs of these rabbits six hours after the treatment and a colorimetric assay of elastase activity was performed on these BAL fluids. Elastase activity is expressed as the concentration of HNE that gives a corresponding OD at 410 nm. Additionally, the same assay was performed after the addition of 100 μg/ml of a serine elastase inhibitor to the BAL fluids.
# [3] = target: T1, human neutrophil elastase (HNE) (Homo sapiens, UniProt P08246); assay: Colorimetric assay of human neutrophil elastase inhibition; format: biochemical
# T1 sequence (P08246 30-267): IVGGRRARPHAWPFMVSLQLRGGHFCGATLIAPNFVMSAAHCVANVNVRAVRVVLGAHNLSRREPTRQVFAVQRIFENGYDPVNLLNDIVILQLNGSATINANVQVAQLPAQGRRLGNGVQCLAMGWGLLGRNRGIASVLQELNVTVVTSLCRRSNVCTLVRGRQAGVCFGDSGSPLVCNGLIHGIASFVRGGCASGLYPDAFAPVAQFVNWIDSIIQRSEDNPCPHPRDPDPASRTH
# Procedure: A peptide having the following sequence MeO-Suc-Ala-Ala-Pro-Val-pNA (SEQ ID NO:24) was used as an elastase substrate. One hundred (100) μL of a 0.425 mM solution of the SEQ ID NO:24 peptide substrate was placed in a series of microtiter plate wells. Varying amounts of human neutrophil elastase (HNE) were added to the microtiter plate wells. The optical density at 410 nm (OD410) was used to measure elastase activity, and the optical densities observed were plotted versus the amounts of HNE added to generate a standard curve.
# To test the ability of a serine elastase inhibitor to inhibit human neutrophil elastase (HNE), a standard amount of 0.125 μg HNE was mixed with increasing amounts of a serine elastase inhibitor before addition of the elastase substrate described in Example 3.
# 0.02 μg of human neutrophil elastase (HNE), was incubated with 2 mg/ml of Model surfactant mixture, 100 μg/ml of a serine elastase inhibitor, or both Model surfactant mixture and the serine elastase inhibitor together. The HNE activity remaining was assayed using the calorimetric assay described above. The result is represented graphically in FIG. 8.
# [4] = target: T1, human neutrophil elastase (HNE); assay: Inhibition of HNE by terminal lavage fluid of treated rabbits; format: biochemical; conditions: 0.02 μg HNE with 50 μl terminal lavage fluid of one representative rabbit per group
# Procedure: The presence of elastase inhibitor(s) (or the residual activity) in the terminal lavage fluids prepared as described in Example 8) was tested. 0.02 μg of human neutrophil elastase (HNE), was incubated with 50 μl of terminal lavage fluid of one representative rabbit from each experimental group (Groups 1-5). HNE activities are assayed using the colorimetric assay as described in Example 1. The assay results are presented graphically in FIG. 9.
# [5] = tested on: rabbits injured with LPS and PMA; assay: LPS/PMA lung injury in rabbits treated with anti-oxidant catalase; format: in vivo, rabbit; conditions: for Albumin In BALF / BALF RBCs / Compliance / PaCO2 6 hr / PaO2 4.5 hr / PaO2 6 hr / Wet:Dry weight / Gross Pathology / Histologic Pathology: average ± SEM; for Wet:Dry weight: lung; for Gross Pathology / Histologic Pathology: on a scale of 0–4
# Procedure: Procedures employed were similar to those used in the foregoing Examples. Lung injury is induced in rabbits (1.0-1.5 kg) by bronchoalveolar lavage (BAL) using 5 μg/ml bacterial LPS in saline at a dosage of 20 ml/kg. At 2.5 hrs after LPS administration, the rabbits received 20 ml/kg phorbol myristate acetate (PMA) by bronchoalveolar lavage. At 2.5 hours after LPS administration, animals in group 1 received the anti-oxidant catalase intratracheally. Animals in group 2 received catalase intratracheally and intravenously. Animals in group 3 received catalase intratracheally and intravenously, as well as 5mg/ml Model Surfactant Mixture (KL4) intratracheally. Animals in group 4 received no further treatment (control). The rabbits were ventilated at PIP […] PEEP 3 cm H2O pressure. The study was terminated at 6 hrs. Values in Tables 6 and 7 are averages+standard error of the mean (SEM).
# [6] = catalase IT & IV (combination: plus 5mg/ml Model Surfactant Mixture IT)
molecule,measurement,setting,value
CCc1c(CC(N)=O)c2cc(OCCCP(=O)(O)O)ccc2n1Cc1ccccc1 [LY311727],PLA2 activity (release of oleic acid from POPG),Phospholipase A2 (PLA2),decreasing amounts of PLA2 activity were observed
"Elafin (AQEPVKGPVSTKPGSCPIILIRCAMLNPPNRCLKDTDCPGIKKCCEGSCGMACFVPQ) [serine elastase inhibitor, Elafin (Astra-Zeneca) 3 mg/ml stock, dialyzed against saline]",number of RBCs in terminal lavage fluid,[1]; 6 hr post LPS/PMA injury,greater reduction in injury
same,amount of protein in terminal lavage fluid,"[1]; 6 hr post LPS/PMA injury, versus injured untreated group","failure of group 3, which received elastase inhibitor alone, to show a reduction in protein levels"
same,"mean protein value in terminal lavage fluid, one aberrant animal excluded","[1]; Group 3, 6 hr post LPS/PMA injury",1.72 mg/mL
same,basement membrane damage (Western blot of basement membrane proteins in BAL fluid),"[1]; terminal lavage fluid, LPS/PMA injured rabbits",Amelioration of the damage in the basement membrane is observed
same,Elastase activity in BAL fluids after added inhibitor,[2],"inhibited in five out of the six BAL fluids; also recorded: In all cases, the elastase activity was inhibited"
same,HNE activity remaining,"[3]; 0.02 μg HNE, Model surfactant mixture 2 mg/ml, serine elastase inhibitor 100 μg/ml",Significant inhibition
same,HNE activity (OD410) versus log of amount of inhibitor,"[3]; 0.125 μg HNE, increasing amounts of inhibitor, in vitro",HNE activity is inhibited in vitro
same,inhibition of HNE activity by terminal lavage fluid,[4],highly significant
catalase,lung function (overall),"[5]; LPS/PMA injured rabbits, study terminated at 6 hrs",significantly improve lung function
same,Albumin In BALF,[5]; [6],0.50 ± 0.11
same,BALF RBCs,[5]; [6],2.3 ± 1.2 ×10^3
same,Compliance,[5]; [6],8.4 ± 0.3 ml at 12 cm H2O/Kg
same,PaCO2 6 hr,[5]; [6],36 ± 5
same,PaO2 4.5 hr,[5]; [6],129 ± 19
same,PaO2 6 hr,[5]; [6],124 ± 22
same,Wet:Dry weight,[5]; [6],8.0 ± 0.6
same,Gross Pathology,[5]; [6],1.1 ± 0.4
same,Histologic Pathology,[5]; [6],2.9 ± 0.8
same,Albumin In BALF,[5]; catalase IT,0.65 ± 0.16
same,BALF RBCs,[5]; catalase IT,6.1 ± 3.6 ×10^3
same,Compliance,[5]; catalase IT,10.1 ± 1.8 ml at 12 cm H2O/Kg
same,PaCO2 6 hr,[5]; catalase IT,40 ± 3
same,PaO2 4.5 hr,[5]; catalase IT,128 ± 15
same,PaO2 6 hr,[5]; catalase IT,119 ± 15
same,Wet:Dry weight,[5]; catalase IT,7.4 ± 0.4
same,Gross Pathology,[5]; catalase IT,1.6 ± 0.6
same,Histologic Pathology,[5]; catalase IT,2.7 ± 0.6

# — US7863241B2, “Compositions for treatment and prevention of pulmonary conditions” (The Scripps Research Institute, priority 2002, dated 2011)
